Measurements from article PMC3749120, “RasGRPs Are Targets of the Anti-Cancer Agent Ingenol-3-Angelate” (PLoS ONE, 2013).

Columns and labels:
[1] = target: T1, RasGRP3 (Homo sapiens, UniProt Q8IV61); test: [3H]PDBu radioligand binding
T1 construct: full-length
T1 sequence (Q8IV61 1-690): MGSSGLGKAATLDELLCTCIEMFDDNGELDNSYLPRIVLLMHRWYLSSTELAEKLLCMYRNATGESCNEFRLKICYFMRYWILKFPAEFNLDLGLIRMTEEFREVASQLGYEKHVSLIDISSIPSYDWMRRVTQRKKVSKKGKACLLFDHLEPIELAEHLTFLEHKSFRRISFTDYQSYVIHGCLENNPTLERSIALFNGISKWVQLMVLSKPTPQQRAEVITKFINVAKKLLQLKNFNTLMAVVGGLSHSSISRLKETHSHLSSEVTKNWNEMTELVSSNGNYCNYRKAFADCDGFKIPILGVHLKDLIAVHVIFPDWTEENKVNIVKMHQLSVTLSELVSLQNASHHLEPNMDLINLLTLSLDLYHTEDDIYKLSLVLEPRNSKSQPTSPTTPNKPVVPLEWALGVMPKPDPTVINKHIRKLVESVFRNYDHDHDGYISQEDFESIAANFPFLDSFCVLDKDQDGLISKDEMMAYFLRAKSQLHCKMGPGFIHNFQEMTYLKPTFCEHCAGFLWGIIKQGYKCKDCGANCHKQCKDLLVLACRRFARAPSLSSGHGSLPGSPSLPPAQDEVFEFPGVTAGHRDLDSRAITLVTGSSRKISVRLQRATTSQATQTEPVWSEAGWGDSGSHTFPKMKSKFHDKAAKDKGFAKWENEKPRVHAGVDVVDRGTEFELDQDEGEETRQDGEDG

[2] = target: T1, RasGRP3; test: competition radioligand binding with [3H]phorbol […],13-dibutyrate, […]°C

SMILES	Kd [1]	Kd [2]
CCCC(=O)O[C@@H]1[C@@H](C)[C@@]2(O)[C@@H](C=C(CO)C[C@]3(O)C(=O)C(C)=C[C@@H]23)[C@@H]2C(C)(C)[C@]12OC(=O)CCC [PDBu, phorbol 12,13-dibutyrate]	420 ± 30 pM	
C/C=C(/C)C(=O)O[C@H]1C(C)=C[C@]23C(=O)[C@@H](C=C(CO)[C@@H](O)[C@]12O)[C@H]1[C@@H](C[C@H]3C)C1(C)C [I3A, Ingenol-3-angelate]		45 ± 5 pM
